The record followed here is patent publication US20040014676A1, “SRC kinase inhibitors useful for treating osteoporosis” (priority 2001, published 2004).

One may read the IC50 as the concentration at which inhibition is half-maximal.

In the experiment the target is T1, Src kinase (Homo sapiens, UniProt P12931).
T1 construct: purchased Upstate Bioteolnology (sic; Upstate Biotechnology); later HMR stock 27597-019E1 #14-117
T1 sequence (P12931 whole entry): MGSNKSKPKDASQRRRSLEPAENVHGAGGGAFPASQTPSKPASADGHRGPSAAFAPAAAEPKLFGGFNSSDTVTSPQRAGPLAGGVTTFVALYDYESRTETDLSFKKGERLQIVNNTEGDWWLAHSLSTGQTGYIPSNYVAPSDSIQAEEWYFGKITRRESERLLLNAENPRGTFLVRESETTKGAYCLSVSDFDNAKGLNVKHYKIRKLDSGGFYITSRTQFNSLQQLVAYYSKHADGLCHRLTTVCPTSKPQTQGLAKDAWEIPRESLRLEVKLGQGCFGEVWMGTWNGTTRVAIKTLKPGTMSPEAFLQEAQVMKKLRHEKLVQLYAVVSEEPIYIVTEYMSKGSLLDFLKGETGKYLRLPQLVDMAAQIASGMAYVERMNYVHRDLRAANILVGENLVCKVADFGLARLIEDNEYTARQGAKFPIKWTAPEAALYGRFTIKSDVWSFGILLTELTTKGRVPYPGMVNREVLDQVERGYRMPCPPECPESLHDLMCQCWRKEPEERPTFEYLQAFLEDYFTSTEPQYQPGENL
Briefly: Phosphorylation assay of Src kinase inhibitors (radiometric, 96 well filter plate). It is filed as biochemical. The conditions noted are these: duplicates, tested in the range of 400-0.098 µM; 10 µM peptide substrate (FIYGAFKKKKNH2), 5 µM unlabeled ATP, room temperature 30 min; read-out: IC50. As to the method:
The present invention provides novel compounds of Formulae I through XVIII discussed above. The following compounds which fall within Formulae I through XVIII are characterized by structure, IUPAC name and activity using phosphorylation assay for protein tyrosine Src kinase.
Phosphorylation Assay of Src Kinase Inhibitors
The activity of Src kinase was measured in a 96 well plate phosphorylation assay where the transfer of gamma phosphate from ATP to peptide substrate was measured radiometrically. […] Ki values were determined experimentally for some of the inhibitors. The phosphocellulose filter plates (Millipore catalog #MAPH NOB) were prewet prior to the phosphorylation assay by addition of 100 1 per well of 30 mM MES buffer+0.4 mg/ml BSA. After a 20-minute incubation, the buffer was removed completely via a Millipore vacuum manifold. The phosphorylation assay was then set up in the filter plates in a total volume per well of 60 1. The 60 1 consisted of compound (see concentration ranges above), a 1:100 dilution of Src kinase (originally Upstate Bioteolnology, #14-117; later HMR stock 27597-019E1) or assay buffer alone (for no enzyme control wells), 10 M peptide substrate (FIYGAFKKKKNH2), 5 M unlabeled ATP and a 1:500 dilution of P-ATP (New England Nuclear, catalog #NEG-602H, 2000 Ci/mmol). The reaction was mixed and incubated at room temperature for 30 min. The kinase reactions were stopped by addition of 150 mM H3PO4 and incubated for 10 minutes. The filter plate wells were filtered and washed seven times with 200 1 per well of 150 mM H3PO4. Finally, the filter plate was placed into a Packard plate adapter (Packard catalog #600517B), 35 1 of Microscint-20 (Packard catalog #6013621) was added to each well, the plate was sealed (TopSeal A sealers; Packard catalog #6005185) and counted on a Packard TopCount.
In the case of `NC(=O)CC(=O)Nc1cc2ccccc2cc1OCCCCNC(=O)[C@@H](N)Cc1csc2ccccc12` [Compound 152, (2S)-2-amino-3-benzo[b]thiophen-3-yl-N-{4-[3-(2-carbamoylacetylamino)(2-naphthyloxy)]butyl}propanamide], the IC50 is 1 µM. The figure for `NC(=O)CNC(=O)c1cc2ccccc2cc1OCCCCNC(=O)[C@@H](N)CC1=CS(=O)(=O)c2ccccc21` [Compound 155, (2S)-2-amino-3-(1,1-dioxobenzo[b]thiophen-3-yl)-N-(4-{3-[N-(carbamoylmethyl)carbamoyl](2-naphthyloxy)}butyl)propanamide] is 5 µM; for `NC(=O)Cc1nc(-c2cc3ccccc3cc2OCCCCNC(=O)[C@@H](N)Cc2csc3ccccc23)no1` [Compound 156, (2S)-2-amino-3-benzo[b]thiophen-3-yl-N-(4-{3-[5-(carbamoylmethyl)(1,2,4-oxadiazol-3-yl)](2-naphthyloxy)}butyl)propanamide] it is 20 µM. As to `N[C@@H](Cc1ccc(O)cc1)C(=O)NCCCCOc1c(O)cc(C(=O)NCC(=O)CCCO)cc1O` [Example 3, ALPHA(S)-AMINO-N-[4-[2,6-DI- HYDROXY-4-[[(5-HYDROXY-2-OXO- PENTYL)AMINO]CARBONYL]- PHENOXY] BUTYL]-4- HYDROXYBENZENEPROPANAMIDE], the IC50 is at least 500 µM. The same measure for `NC(=O)CNC(=O)c1cc2ccccc2cc1OCCCCNC(=O)[C@@H](N)Cc1ccc(O)cc1` [Example 5, 3-[4-[[2(S)-AMINO-3-(4-HYDROXY- PHENYL)-1-OXOPROPYL]AMINO]- BUTOXY]-2-[N-ACETAMIDO]- NAPHTHALENECARBOXAMIDE]: 0.47 µM. The figure for `NC(=O)c1cc2ccccc2cc1OCCCCNC(=O)[C@@H](N)Cc1ccc(O)cc1` [Example 6, 3-[4-[[2(S)-AMINO-3-(4-HYDROXY- PHENYL)-1-OXOPROPYL]AMINO]- BUTOXY]-NAPHTHALENE-2- CARBOXAMIDE] is 47 µM. As to `N[C@@H](Cc1ccc(O)cc1)C(=O)NCCCOc1cc2ccccc2cc1C(=O)NCC(=O)NCCCO` [Example 7, 3-[3-[[2(S)-AMINO-3-(4-HYDROXY- PHENYL)-1-OXOPROPYL]AMINO]- PROPOXY]-N-[2-[(3-HYDROXY- PROPYL)AMINO]-2-OXOETHYL]-2- NAPHTHALENECARBOXAMIDE], the IC50 came out at 45 µM.

For the compound `NCCCCC(NC(=O)c1cc2ccccc2cc1OCCCCNC(=O)[C@@H](N)Cc1ccc(O)cc1)C(N)=O` (stereo partly drawn) [Example 8, 3-[4-[[2(S)-AMINO-3-(4-HYDROXY- PHENYL)-1-OXOPROPYL]AMINO]- BUTOXY]-NAPHTHALENE-2-[N-[[(4- AMINOBUTYL)(AMIDO)]METHYL]- ACETAMIDO]CARBOXAMIDE], the IC50 was 348 µM. The same measure for `CC(NC(=O)c1cc2ccccc2cc1OCCCCNC(=O)[C@@H](N)Cc1ccc(O)cc1)C(N)=O` (stereo partly drawn) [Example 9, 3-[4-[[2(S)-AMINO-3-(4-HYDROXY- PHENYL)-1-OXOPROPYL]AMINO]- BUTOXY]-NAPHTHALENE-2-N-[(1- AMIDO)ETHYL]CARBOXAMIDE]: 25 µM; for `NC(=O)C(Cc1ccccc1)NC(=O)c1cc2ccccc2cc1OCCCCNC(=O)[C@@H](N)Cc1ccc(O)cc1` (stereo partly drawn) [Example 10, 3-[4-[[2(S)-AMINO-3-(4-HYDROXY- PHENYL)-1-OXOPROPYL]AMINO]- BUTOXY]-NAPHTHALENE-2-[N- [(AMIDO)(BENZYL)METHYL]]- CARBOXAMIDE]: at least 500 µM; for `N=C(N)NCCCC(NC(=O)c1cc2ccccc2cc1OCCCCNC(=O)[C@@H](N)Cc1ccc(O)cc1)C(N)=O` (stereo partly drawn) [Example 11, 3-[4-[[2(S)-AMINO-3-(4-HYDROXY- PHENYL)-1-OXOPROPYL]AMINO]- BUTOXY]-NAPHTHALENE-2-[N- [[AMIDO][(3-AMINOIMINOMETHYL)- PROPYLAMINO]METHYL]]- CARBOXAMIDE]: 113 µM. Consider `NC(=O)C(CCC(=O)O)NC(=O)c1cc2ccccc2cc1OCCCCNC(=O)[C@@H](N)Cc1ccc(O)cc1` (stereo partly drawn) [Example 12, 3-[4-[[2(S)-AMINO-3-(4-HYDROXY- PHENYL)-1-OXOPROPYL]AMINO]- BUTOXY]-NAPHTHALENE-2-[N- [(AMIDO)(2-CARBOXYEHTYL)- METHYL]]CARBOXAMIDE], for which the IC50 was 308 µM. Consider `NC(=O)CNC(=O)c1cc2ccccc2cc1OCCCCNC(=O)[C@@H](N)Cc1ccc2ccccc2c1` [Example 13, 3-[4-[[2(S)-AMINO-3-(NAPTHYL-2-YL)-1- OXOPROPYL]AMINO]BUTOXY]- NAPHTHALENE-2-[N-(2- AMIDOMETHYL)]CARBOXAMIDE], for which the IC50 turned out to be 0.45 µM.

Turning to `NC(=O)CNC(=O)c1cc2ccccc2cc1OCCCCNC(=O)[C@@H](N)Cc1ccccc1` [Example 14, 3-[4-[[2(S)-AMINO-3-(PHENYL)-1- OXOPROPYL]AMINO]BUTOXY]- NAPHTHALENE-2-[N-(2- AMIDOMETHYL)]CARBOXAMIDE], the IC50 came out at 0.98 µM. `CC(C)C[C@H](N)C(=O)NCCCCOc1cc2ccccc2cc1C(=O)NCC(N)=O` [Example 15, 3-[4-[[2(S)-AMINO-3-(ISOPROPYL)-1- OXOPROPYL]AMINO]BUTOXY]- NAPHTHALENE-2-[N-(2- AMIDOMETHYL)]CARBOXAMIDE]: the IC50 is 4.8 µM.

Turning to `NC(=O)CNC(=O)c1cc2ccccc2cc1OCCCCNC(=O)[C@H](Cc1ccc(O)cc1)NC(=O)c1ccccc1` [Example 17, 3-[4-[[2(S)-(N-BENZOYLAMINO)-3-(4- HYDROXYPHENYL)-1-OXOPROPYL]- AMINO]BUTOXY]-NAPHTHALENE-2- [N-(2-AMIDOMETHYL)]CARBOXAMIDE], the IC50 stood at 23 µM.

With `NC(=O)CNC(=O)c1cc2ccccc2cc1OCCCCNC(=O)[C@H](Cc1ccc(O)cc1)NC(=O)OCc1ccccc1` [Example 18, 3-[4-[[2(S)-(N-BENZYLOXY- CARBONYL)AMINO-3-(4-HYDROXY- PHENYL)-1-OXOPROPYL]AMINO]- BUTOXY]-NAPHTHALENE-2-[N-(2- AMIDOMETHYL)]CARBOXAMIDE], the IC50 was determined as 32 µM. The same measure for `CCC(C)[C@H](N)C(=O)NC(Cc1ccc(O)cc1)C(=O)NCCCCOc1cc2ccccc2cc1C(=O)NCC(N)=O` (stereo partly drawn) [Example 19]: 12 µM; for `NC(=O)CNC(=O)c1cc2ccccc2cc1OCCCCNC(=O)C1Cc2ccc(O)cc2CN1` (stereo not drawn) [Example 20, 3-[N-[[(7-HYDROXY)-1,2,3,4-TETRA- HYDROISOQUINOLIN-3-YL]- CARBONYL]AMINO]BUTOXY]- NAPHTHALENE-2-[N-(2- AMIDOMETHYL)]CARBOXAMIDE]: 3.8 µM; for `NC(=O)CNC(=O)c1cc2ccccc2cc1OCCCCNC(=O)C1NCCC1c1ccc(O)cc1` [Example 21, 3-[N-[[[(3-(R)4-HYDROXYPHENYL)- TETRAHYDROPYRROL-2-YL]- CARBONYL]AMINO]BUTOXY]- NAPHTHALENE-2-[N-(2- AMIDOMETHYL)]CARBOXAMIDE]: 4.6 µM. `NC(=O)CNC(=O)c1cc2ccccc2cc1OCCCCNC(=O)C1NCCC1c1ccc(O)cc1` [Example 22, 3-[N-[[[(3-(S)4-HYDROXYPHENYL)- TETRAHYDROPYRROL-2-YL]- CARBONYL]AMINO]BUTOXY]- NAPHTHALENE-2-[N-(2- AMIDOMETHYL)]CARBOXAMIDE]: the IC50 amounted to 11 µM. The same measure for `NCCCCOc1cc2ccccc2cc1C(=O)NCC(N)=O` [Example 26, 3-(4-AMINOBUTOXY)-NAPHTHALENE- 2-[N-ACETAMIDO]CARBOXAMIDE]: 25 µM; for `NC(=O)CNC(=O)c1cc2ccccc2cc1NC(=O)CCCNC(=O)[C@@H](N)Cc1ccc(O)cc1` [Example 34, 3-[[[[[[2(S)-AMINO-3-(4-HYDROXY- PHENYL)-1-OXO]PROPYL]AMINO]- PROPYL]CARBONYL] AMINO]- NAPHTHALENE-2-(N-ACETAMIDO)- CARBOXAMIDE]: 252 µM; for `NC(=O)CNC(=O)c1cc2ccccc2cc1NC(=O)CCCCNC(=O)[C@@H](N)Cc1ccc(O)cc1` [Example 35, 3-[[[[[[2(S)-AMINO-3-(4-HYDROXY- PHENYL)-1-OXO]PROPYL]AMINO]- BUTYL]CARBONYL] AMINO]- NAPHTHALENE-2-(N- ACETAMIDO)CARBOXAMIDE]: 209 µM. The same measure for `NC(=O)CNC(=O)c1cc2ccccc2cc1OCCCCNC(=O)[C@@H](N)CCc1ccccc1` [Example 36, 3-[[4-[(2(S)-AMINO-3-(BENZYL-1- OXO)PROPYL]AMINO]BUTOXY]- NAPHTHALENE-2-(N- ACETAMIDO)CARBOXAMIDE]: 7.9 µM.

Consider `NC(=O)CNC(=O)c1cc2ccccc2cc1OCCCCNC(=O)[C@@H](N)c1ccccc1` [Example 37, 3-[[4-[(2(S)-AMINO-2-PHENYL-1- OXO)ETHYL]AMINO]BUTOXY]- NAPHTHALENE-2-(N- ACETAMIDO)CARBOXAMIDE], for which the IC50 was determined as 3.3 µM.

Consider `NC(=O)CNC(=O)c1cc2ccccc2cc1OCCCCNC(=O)[C@@H](N)Cc1ccc(-c2ccccc2)cc1` [Example 38, 3-[[4-[[2(S)-AMINO-3-(BIPHEN-1-YL)-1- OXO]PROPYL]AMINO]BUTOXY]- NAPHTHALENE-2-(N- ACETAMIDO)CARBOXAMIDE], for which the IC50 stood at 30 µM.
